Experiment: Water solubility of solid halogenated hydantoins and halogen dissolved in a saturated solution
Type: physicochemical
Details: Table II; for Saturated Solution, amount of halogen dissolved: saturated solution in water

Compound	Saturated Solution, amount of halogen dissolved [mg/L as Cl2]	Solubility (water) [%]
CC1(C)C(=O)N(Br)C(=O)N1Br [Dibromodimethylhydantion, 1,3-dibromo-5,5-dimethylhydantoin]	542	–
CC1(C)C(=O)N(Cl)C(=O)N1Br [Bromo-chlorodimethylhydantoin, bromochlorodimethylhydantoin]	825	0.15

Source: patent US5641520A, “Halogen compositions for water treatment” (priority 1995, dated 1997)
